According to paper PMC10714390, “Quinoline Compounds Targeting the c-Ring of ATP Synthase Inhibit Drug-Resistant Pseudomonas aeruginosa” (ACS Infectious Diseases, 2023):
Several values for one entry are separate records, joined by “and”; a condition that tells them apart may be missing. Equal values may be shown once.

Legend:
[1] = biological target: T1, PA ATP synthase cIle65Phe mutant (Pseudomonas aeruginosa, UniProt Q9HT15, I65F); test: NADH-driven ATP synthesis inhibition, DK8/pASH20 cI65F membrane vesicles; type: biochemical; settings: for Hill coefficient of dose response fit, DK8/pASH20 cI65F vesicles: inhibition of ATP synthesis activity
T1 construct: expressed in transfected cells; host or cells: E. coli K-12 DK8 transformed with pASH20 carrying mutated atpE
Protocol: (§1) P. aeruginosa (ATCC 9027) was streaked onto a 10% TSB agar plate and incubated at room temperature for 72 h. A single colony was resuspended in 100 μL of H2O, and 5 μL was used as the DNA template for PCR with Q5 polymerase (NEB) and […] each of forward and reverse primers. Primers were complementary to regions flanking the atp operon and included sequences for HindIII and NdeI restriction sites (see the SI for primer sequences). The resulting 6.9 kbp DNA fragment was digested with HindIII and NdeI and ligated into digested vector pBR322 (New England Biolabs). The resultant pASH20(-i) plasmid contains a partial atpI gene. To complete the atpI gene, the HindII-XhoI fragment of pASH20(-i) was replaced with a synthetic fragment with a complete atpI (Twist Bioscience) to yield pASH20. The sequence of the entire operon was verified by Sanger DNA sequencing through the ligation sites. Subunit c mutations were introduced by exchanging the XhoI-BamHI fragment containing atpE with a synthetic fragment containing mutated atpE (Twist Bioscience).
(§2) Vesicles were prepared from P. aeruginosa and transformed E. coli cells as previously described.[22] Briefly, cells were grown in LB liquid medium at 37 °C with shaking and harvested by centrifugation after 7 h of growth. Cultures of transformant E. coli included 100 μg/mL ampicillin. Cells were disrupted in TMG buffer (50 mM Tris-HCl, MgCl2, 10% (v/v) glycerol, pH 7.5) using an Avestin B15 homogenizer at 19,000 psi. After unbroken cells and debris were cleared by centrifugation at 9000g, inverted vesicles were collected by centrifugation at 193,000g, resuspended in TMG buffer, and stored at −80 °C. Protein concentrations were determined using a modified Lowry assay.[25]
(§3) Continuous ATP synthesis activity of inverted membrane vesicles was measured using a luciferin/luciferase luminescence assay as previously described.[22] Inhibition of ATP synthesis activity by test compounds was determined using an end point assay essentially as previously described.[18],[26] In this assay, the synthesis reaction was initiated by 2.5 mM NADH, proceeded for 10 min, and was stopped with 1% trichloroacetic acid, 2 mM CCCP, and 10 mM EDTA. Samples from each reaction were diluted 500-fold prior to the addition of luciferase since quinoline compounds are known to inhibit luciferase.[27] This dilution was sufficient to minimize inhibition of luciferase (Figure S4). Each replicate set included a positive control containing DMSO with no compound and a negative control containing carbonyl cyanide m-chlorophenyl hydrazone. Luminescence values were corrected for the background by subtracting the negative control and then normalized to the positive control within the same replicate. Dose–response curves were fit using eq 1, where activity is the relative ATP synthesis activity, [I] is the concentration of inhibitor in μg/mL, and n is the Hill coefficient. [drawing 1] 1

[2] = system: drug-resistant P. aeruginosa BAA 2110; test: Antimicrobial susceptibility (broth microdilution), BAA 2110; type: cell-based, Pseudomonas aeruginosa; settings: for MIC: Pseudomonas aeruginosa, BAA2110, read-out: antibacterial activity (MIC) BAA 2110
Protocol: (§4) The following are general steps, unless otherwise noted. All steps were completed using aseptic techniques. All media and glassware were sterilized via an autoclave at 121 °C for 60 min. All agitation occurred at 160 rpm in a temperature-controlled console shaker (Excella E25) at 37 °C. Full-strength tryptic soy broth (TSB) was made by dissolving 30 g of BD Bacto TSB powder in 1 L of deionized water. Purchased and acquired bacterial strains used were E. coli (ATCC 25922), P. aeruginosa (ATCC 9027), drug-resistant P. aeruginosa from ATCC Panel MP-23 (BAA 2108, BAA 2109, BAA 2110), and P. aeruginosa efflux knockout GKCW120 (PΔ6)[6] provided by Zgurskaya and co-workers at the University of Oklahoma.
(§5) Susceptibility testing was performed in biological triplicate using the broth microdilution method as outlined by the Clinical and Laboratory Standards Institute. […] Briefly, to each well, 1 μL of compound in DMSO, 89 μL of TSB, and 10 μL of bacterial inoculum, grown from a single colony in 10 mL of TSB for 4–6 h, were added. After incubation for 12–15 h at 37 °C, absorbance at 590 nm was read on a Biotek Synergy HTX Multimode plate reader. Data were processed by background subtracting the media absorbance and then normalizing the data to full bacterial growth with the vehicle only. MIC is defined as the lowest concentration of antibiotic or antibiotic/adjuvant combination that achieves ≥85% growth inhibition, which corresponds to no visible growth.

Solubility in DMSO = type: physicochemical
PA ATP synthase = biological target: T2, PA ATP synthase (Pseudomonas aeruginosa, UniProt Q9HT15); test: NADH-driven ATP synthesis inhibition, PA inverted membrane vesicles; type: biochemical; settings: for Hill coefficient of dose response fit, PA vesicles: inhibition of ATP synthesis activity; for IC50: inverted membrane vesicles from PA 9027, NADH-driven, end point luminescence assay
T2 construct: Inverted membrane vesicles were prepared from PA 9027; endogenous in cells; host or cells: Pseudomonas aeruginosa ATCC 9027, inverted membrane vesicles
Protocol: as §2, §3

[3] = system: drug-resistant P. aeruginosa BAA 2108; test: Antimicrobial susceptibility (broth microdilution), BAA 2108; type: cell-based, Pseudomonas aeruginosa; settings: for MIC: Pseudomonas aeruginosa, BAA2108, read-out: antibacterial activity (MIC) BAA 2108; for antibacterial activity in words, BAA 2108: summary of Table 1
Protocol: as §4, §5

[4] = biological target: T3, PA ATP synthase cIle65Ala mutant (Pseudomonas aeruginosa, UniProt Q9HT15, I65A); test: NADH-driven ATP synthesis inhibition, DK8/pASH20 cI65A membrane vesicles; type: biochemical; settings: for IC50: ATP synthesis IC50, DK8/pASH20 cI65A vesicles, cI65A mutant, NADH-driven, luminescence assay; for Hill coefficient of dose response fit, DK8/pASH20 cI65A vesicles: inhibition of ATP synthesis activity
T3 construct: expressed in transfected cells; host or cells: E. coli K-12 DK8 transformed with pASH20 carrying mutated atpE
Protocol: as §1, §2, §3

[5] = system: PA electron transport chain; test: Electron transport activity (NADH-driven H+ pumping, ACMA quenching), PA vesicles; type: biochemical, Pseudomonas aeruginosa; settings: for inhibition of PA ETC-driven H+ pumping, in words: 0-64 µg/mL, Figure S2; for Inhibition of the PA electron transport chain IC50: PA vesicles
Protocol: (§6) Determination of electron transport activity. In an opaque black 96-well plate, inverted membrane
(§7) vesicles from PA or E. coli DK8 pASH20 were added to HMK buffer containing 0.3 µg/mL 9-amino-6-chloro-
(§8) 2-methoxyacridine (ACMA) and 0-64 µg/mL test compound in DMSO. After measurement of baseline
(§9) ACMA fluorescence for 60 s, redox-driven H+ pumping was initiated by addition of NADH to 0.8 mM, and
(§10) fluorescence quenching was monitored for 120 s before addition of nigericin to 0.5 µg/mL. Relative
(§11) activity is reported as the minimum fluorescence value normalized to the maximum fluorescence value
(§12) following addition of nigericin. […]

[6] = system: EC electron transport chain; test: Electron transport activity (NADH-driven H+ pumping, ACMA quenching), E. coli DK8/pASH20 vesicles; type: biochemical, Escherichia coli; settings: for inhibition of EC ETC-driven H+ pumping, in words: 0-64 µg/mL, Figure S2; for Inhibition of the EC electron transport chain IC50: EC (DK8/pASH20) vesicles
Protocol: as §6, §7, §8, §9, §10, §11, §12

## CSc1nc2ccccc2cc1CNCc1ccc(CN(C)C)cc1 [Compound 4, N,N-Dimethyl-1-(4-((((2-(methylthio)quinolin-3-yl)methyl)amino)methyl)phenyl)methanamine]
[1]
  IC50: 12.8 µM
  Hill coefficient of dose response fit, DK8/pASH20 cI65F vesicles: 1.4
[1]; ATP synthesis inhibition, DK8/pASH20 vesicles
  fold reduction in IC50, cIle65Phe mutant relative to wild type: greater than 6 fold
[2]
  MIC: > 256 µg/mL
Solubility in DMSO; at 128 μg/mL
  solubility in dimethyl sulfoxide (DMSO): very soluble
Solubility in DMSO; at 256 μg/mL
  solubility in dimethyl sulfoxide (DMSO): fully soluble
PA ATP synthase
  Hill coefficient of dose response fit, PA vesicles: 0.8
  IC50: 31.3 µM and 31.6 µM
[3]
  MIC: 128 to 256 µg/mL
  antibacterial activity in words, BAA 2108: able to inhibit
[4]
  IC50: 59.5 µM and 59.7 µM
  Hill coefficient of dose response fit, DK8/pASH20 cI65A vesicles: 1.2
[5]
  inhibition of PA ETC-driven H+ pumping, in words: some inhibition
  Inhibition of the PA electron transport chain IC50: 29 µg/mL
[6]
  inhibition of EC ETC-driven H+ pumping, in words: mildly inhibited
  Inhibition of the EC electron transport chain IC50: 61 µg/mL

## CN(C)Cc1ccc(CNCc2cc3ccccc3nc2SCc2ccccc2)cc1 [Compound 5, 1-(4-((((2-(Benzylthio)quinolin-3-yl)methyl)amino)methyl)phenyl)-N,N-dimethylmethanamine]
[1]
  IC50: 8.18 µM
  Hill coefficient of dose response fit, DK8/pASH20 cI65F vesicles: 1.8
[2]
  MIC: > 128 µg/mL
[2]; summary of Table 1
  antibacterial activity in words, BAA 2110: inactive
Solubility in DMSO; at 128 μg/mL
  solubility in dimethyl sulfoxide (DMSO): very soluble
Solubility in DMSO; at 256 μg/mL
  solubility in dimethyl sulfoxide (DMSO): partially soluble
PA ATP synthase
  Hill coefficient of dose response fit, PA vesicles: 0.8
  IC50: 1.64 µM
[3]
  MIC: 64 µg/mL
  antibacterial activity in words, BAA 2108: more potent
[4]
  IC50: 13.3 µM
  Hill coefficient of dose response fit, DK8/pASH20 cI65A vesicles: 1.7
[5]
  inhibition of PA ETC-driven H+ pumping, in words: some inhibition
  Inhibition of the PA electron transport chain IC50: 27 µg/mL
[6]
  inhibition of EC ETC-driven H+ pumping, in words: mildly inhibited
  Inhibition of the EC electron transport chain IC50: >64 µg/mL
